Laboratory results from patent US20140147528A1, “GARLIC FORMULATION AND A PROCESS FOR PREPARING THE SAME FOR TREATMENT OF DIABETES” (priority 2012, published 2014).

Legend:
Format in all cases: in vivo, rat
[1] = tested on: STZ diabetic rats; experiment: Serum total protein, creatinine and uric acid in STZ diabetic rats; settings: Glibenclamide 10 mg/kg p.o. (Group III), 21 days, ± S.E, n=6
Protocol: (§1) The garlic tablet at the said dosages was subjected to efficacy studies in diabetic animal models. For the efficacy studies on diabetes, studies were carried out using male Wistar albino rats (150-200 g). The animals were grouped and housed in polyacrylic cages with not more than six animals per cage and maintained under standard laboratory conditions (temperature 25°±2° C.) with dark and light cycle (12/12 h). The animals were fed with standard pellet diet supplied by Hindustan Lever Ltd., India and fresh water ad libitum. All the animals were acclimatized to laboratory condition for a week before commencement of experiment. […] were divided into five groups for further experiments.
(§2) Rats were randomly allocated to five groups. Diabetes was induced by a single intraperitoneal injection of 120 mg/kg of Streptozotocin (STZ) in citrate buffer (0.1 M, pH 4.5). Group I consisted of normal healthy rats that were administered 1 ml/kg of 0.5% carboxy methylcellulose (CMC) solution orally. Group II consisted of diabetic rats used as control and were administered orally 1 ml/kg of 0.5% carboxy methylcellulose solution. Groups III consisted of diabetic rats treated daily with oral administration of 10 mg/kg of glibenclamide. Group IV consisted of diabetic rats treated orally with 500 mg of tablet suspended in 0.5% carboxy methylcellulose solution. Group V consisted of diabetic rats treated orally with 1000 mg of tablet suspended in 0.5% carboxy methylcellulose solution.
(§3) All the test drugs were administered for 21 days. Blood glucose levels were estimated on the 1st, 3rd, 7th, 14th and 21st day by collecting tail vein using glucometer during drug treatment. On the 22nd day, the blood was collected for biochemical estimation by sinus puncture under anesthesia. The animals were sacrificed by cervical dislocation and organs were removed for histopathological studies.

[2] = tested on: STZ diabetic rats; experiment: Serum AST, ALT and ALP in STZ diabetic rats; settings: Glibenclamide 10 mg/kg p.o. (Group III), 21 days, ± S.E, n=6
Protocol: as §1, §2, §3

[3] = tested on: STZ induced diabetic rats; experiment: Blood glucose in STZ induced diabetic rats (glucometer, tail vein); settings: Glibenclamide 10 mg/kg p.o. daily, n=6
Protocol: as §1, §2, §3

[4] = tested on: STZ diabetic rats; experiment: Hemoglobin, glycosylated hemoglobin and plasma insulin in STZ diabetic rats; settings: Glibenclamide 10 mg/kg p.o. (Group III), 21 days, ± S.E, n=6
Protocol: as §1
as §2, with “Group V consisted of diabetic rats treated orally with 1000 mg of tablet suspended in 0.5% carboxy methylcellulose solution.” left out

[5] = Body weight development in STZ diabetic rats; settings: Glibenclamide 10 mg/kg p.o. (Group III), ± S.E, n=6
Protocol: as §1
as §2, with “Group V consisted of diabetic rats treated orally with 1000 mg of tablet suspended in 0.5% carboxy methylcellulose solution.” left out

## COc1ccc(Cl)cc1C(=O)NCCc1ccc(S(=O)(=O)NC(=O)NC2CCCCC2)cc1 [Glibenclamide, glibenclamide]
[1]
  Creatinine: 1.04 ± 0.01^b** mg/dl
  Protein: 126.4 ± 2.84^b*** mg/dl
  Uric acid: 1.57 ± 0.06^b*** mg/dl
[2]
  ALP: 171.9 ± 4.07 ^b*** μmoles of phenol liberated/min/mg of protein
  ALT: 56.4 ± 1.54 ^b*** μmoles of pyruvate/h/mg/of protein
  AST: 161.0 ± 64.0 ^b*** μmoles of pyruvate/h/mg/of protein
[3]; day 1, mean
  Blood Sugar, 1 Day: 290.50 mg/dL
[3]; day 3, mean
  Blood Sugar, 3 Day: 210.17 mg/dL
[3]; day 7, mean
  Blood Sugar, 7 Day: 157.67 mg/dL
[3]; day 14, mean
  Blood Sugar, 14 Day: 124.50 mg/dL
[3]; day 21, mean
  Blood Sugar, 21 Day: 113.17 mg/dL
[4]
  HBA1C: 0.17 ± 0.008^b*** % Hb
  Plasma Insulin: 16.4 ± 0.27^b*** μU/ml
[5]; 21 days
  Body Weight Final: 161.13 ± 2.14^b* g
[5]
  Body Weight Initial: 163.6 ± 1.42 g
